Laboratory results reported in US9481688B2, “(Thieno[2,3-b][1,5]benzoxazepin-4-yl)piperazin-1-yl compounds as dual activity H1 inverse agonists/5-HT2A antagonists” (Eli Lilly and Company, priority 2011, dated 2016).
Counter-ions that a name gives are not always drawn.

Experiments:
native GABAA receptors = test: GABAA antagonism using native receptors in primary neuronal cultures (FLIPR calcium flux); assay type: cell-based, rat; details: against 10 μM GABA
Procedure: Activity of compounds on native GABAA receptors is evaluated by monitoring calcium fluxes using a 96 well format FLIPR® system (Fluorometric Imaging Plate Reader (FLIPR®, Molecular Devices). Briefly, cortical embryonic neurons are dissociated from E18 rat embryos and plated at optimum density into black-walled, transparent bottom poly-D-lysine coated 96-well FLIPR® plates. After loading the cells with a calcium sensitive dye (Fluo4-AM, Molecular Devices), the cells are bathed in a solution containing low chloride (chloride replaced by gluconate). Under these conditions activation of GABAA receptors causes an efflux of chloride ions (in the direction of the chemical gradient), which results in membrane depolarization and consequently activation of voltage gated calcium channels (VGCCs). Calcium influx through VGCCs is recorded and analysed offline using the FLIPR® system. For a pharmacological validation of the assay, concentration response curves (CRC) are recorded for the standard agonist (GABA) and standard antagonist (Gabazine). […]
The antagonist effects of compounds are quantified using 10-point dose response curves by comparing the peak fluorescent responses to the agonist GABA in the presence and absence of compound. […] Antagonist effects are calculated as a percent of the assay window. […]

hERG channel = hERG channel (Homo sapiens (Human), UniProt Q12809); test: hERG channel assay
From the text: (§1) Further, the compounds of the invention may be tested in binding assays and functional activity assays by well known methods for other physiologically important receptors such as, but not limited to, the hERG channel, other serotonin receptors (specifically 5-HT1B, 5-HT1D, receptors, lack of agonist activity at 5-HT2B receptors, 5-HT2C, 5-HT5, 5-HT6, and 5-HT7 receptors), dopaminergic receptors (specifically D1, D2, and D3), GABAA receptors, adrenergic receptors and monoamine transporters.

Dopamine D2 = Dopamine D2 (Homo sapiens (Human), UniProt P14416); test: Dopamine D2 binding; details: dihydrochloride
From the text: as §1

5-HT1B = 5-HT1B (Homo sapiens (Human), UniProt P28222); test: 5-HT1B binding
From the text: as §1

5-HT6 = 5-HT6 (Homo sapiens (Human), UniProt P50406); test: 5-HT6 binding
From the text: as §1

Adrenergic alpha1A = Adrenergic alpha1A (Homo sapiens (Human), UniProt P35348); test: Adrenergic alpha1A binding
From the text: as §1

Adrenergic alpha2A = Adrenergic alpha2A (Homo sapiens (Human), UniProt P08913); test: Adrenergic alpha2A binding
From the text: as §1

Adrenergic alpha2B = Adrenergic alpha2B (Homo sapiens (Human), UniProt P18089); test: Adrenergic alpha2B binding
From the text: as §1

Adrenergic alpha2C = Adrenergic alpha2C (Homo sapiens (Human), UniProt P18825); test: Adrenergic alpha2C binding
From the text: as §1

5-HT2A Receptor = 5-HT2A Receptor (Rattus norvegicus (Rat), UniProt P14842); test: 5-HT2A receptor occupancy in vivo (MDL 100907 tracer); details: oral gavage, 1 hr. before tracer
From the text: J Neurosci Methods. […] Recording Environment. […] Relative humidity averages approximately 50%. […] Study Design and Dosing. […] Data Collection. […] Statistical Analysis.

[1] = biological target: human recombinant H1 receptor (Homo sapiens (Human), UniProt P35367); test: H1 inverse agonism (IP1 accumulation in HEK293/hm H1 cells); assay type: cell-based; details: n=2
Wistar rats = test: Sleep and behavioral monitoring in rats (EEG, EMG, motion); details: for Rebound Insomnia, Adj. Mean: NREM + REM sleep in 7th-9th hours post-treatment; for Rebound Insomnia, Adj. Mean / REM inhibition, Adj. Mean / Cumulative NREM sleep, Adj. Mean / Cumulative Total sleep, Adj. Mean / Locomotor Activity Intensity, Adj. Mean: difference from vehicle; for REM inhibition, Adj. Mean: REM sleep in first 12 hr. post-treatment; for Average Sleep Bout, Adj. Mean / Longest Sleep Bout, Adj. Mean / Cumulative NREM sleep, Adj. Mean / Cumulative Total sleep, Adj. Mean / Locomotor Activity Intensity, Adj. Mean: first 6 hr. post-treatment
[2] = rat, PO, 6 hr. after treatment, 4 parameter logistic regression

Sequence of human recombinant H1 receptor (P35367 whole entry): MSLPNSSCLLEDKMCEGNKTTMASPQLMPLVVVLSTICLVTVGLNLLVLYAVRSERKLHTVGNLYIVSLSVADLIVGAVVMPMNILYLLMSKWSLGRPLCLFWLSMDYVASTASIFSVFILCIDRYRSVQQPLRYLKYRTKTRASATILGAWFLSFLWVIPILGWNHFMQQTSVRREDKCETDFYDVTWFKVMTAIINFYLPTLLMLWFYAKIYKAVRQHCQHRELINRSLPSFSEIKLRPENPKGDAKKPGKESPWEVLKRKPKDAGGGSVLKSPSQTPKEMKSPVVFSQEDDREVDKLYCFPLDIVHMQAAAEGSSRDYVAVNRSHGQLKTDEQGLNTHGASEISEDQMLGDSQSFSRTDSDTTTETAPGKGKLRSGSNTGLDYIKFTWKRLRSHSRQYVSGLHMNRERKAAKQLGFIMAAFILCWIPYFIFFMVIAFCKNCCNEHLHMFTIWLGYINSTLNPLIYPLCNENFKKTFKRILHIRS
Sequence of 5-HT6 (P50406 whole entry, species assumed): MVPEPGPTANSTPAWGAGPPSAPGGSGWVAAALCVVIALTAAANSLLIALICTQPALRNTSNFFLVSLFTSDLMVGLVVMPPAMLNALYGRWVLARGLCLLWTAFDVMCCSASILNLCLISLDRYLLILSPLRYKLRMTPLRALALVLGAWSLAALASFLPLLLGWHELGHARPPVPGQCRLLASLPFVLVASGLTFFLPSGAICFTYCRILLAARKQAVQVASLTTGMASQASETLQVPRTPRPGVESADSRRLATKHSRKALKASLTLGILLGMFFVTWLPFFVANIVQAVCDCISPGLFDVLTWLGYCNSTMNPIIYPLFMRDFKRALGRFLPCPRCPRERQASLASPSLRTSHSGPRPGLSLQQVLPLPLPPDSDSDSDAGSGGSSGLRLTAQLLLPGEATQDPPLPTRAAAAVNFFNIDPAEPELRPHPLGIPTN
Sequence of Adrenergic alpha2A (P08913 whole entry): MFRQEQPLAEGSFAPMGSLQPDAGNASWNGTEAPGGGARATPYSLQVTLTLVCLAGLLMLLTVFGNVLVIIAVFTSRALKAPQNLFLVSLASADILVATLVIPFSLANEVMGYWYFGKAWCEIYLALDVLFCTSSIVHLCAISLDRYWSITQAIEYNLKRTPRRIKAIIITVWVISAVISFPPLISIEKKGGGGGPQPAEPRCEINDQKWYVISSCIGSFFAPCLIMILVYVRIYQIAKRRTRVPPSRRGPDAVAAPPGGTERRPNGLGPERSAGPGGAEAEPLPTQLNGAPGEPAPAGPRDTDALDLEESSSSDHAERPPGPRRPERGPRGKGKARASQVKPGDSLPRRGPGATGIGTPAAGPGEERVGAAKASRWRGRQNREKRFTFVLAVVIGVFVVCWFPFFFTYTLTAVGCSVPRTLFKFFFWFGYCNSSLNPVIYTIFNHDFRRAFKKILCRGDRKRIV
Sequence of Dopamine D2 (P14416 whole entry): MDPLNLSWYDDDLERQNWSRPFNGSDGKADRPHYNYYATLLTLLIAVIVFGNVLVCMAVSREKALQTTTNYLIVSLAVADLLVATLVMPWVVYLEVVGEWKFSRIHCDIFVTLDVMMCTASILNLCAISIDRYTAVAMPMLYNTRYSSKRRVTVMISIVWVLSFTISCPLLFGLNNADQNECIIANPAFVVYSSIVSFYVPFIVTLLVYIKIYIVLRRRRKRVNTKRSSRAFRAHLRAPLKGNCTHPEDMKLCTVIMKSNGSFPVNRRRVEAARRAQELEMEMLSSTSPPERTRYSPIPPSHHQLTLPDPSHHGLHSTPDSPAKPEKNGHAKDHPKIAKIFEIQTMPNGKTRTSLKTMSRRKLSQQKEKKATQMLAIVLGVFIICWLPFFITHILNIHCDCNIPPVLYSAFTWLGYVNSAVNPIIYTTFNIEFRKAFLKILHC
Sequence of Adrenergic alpha2C (P18825 whole entry): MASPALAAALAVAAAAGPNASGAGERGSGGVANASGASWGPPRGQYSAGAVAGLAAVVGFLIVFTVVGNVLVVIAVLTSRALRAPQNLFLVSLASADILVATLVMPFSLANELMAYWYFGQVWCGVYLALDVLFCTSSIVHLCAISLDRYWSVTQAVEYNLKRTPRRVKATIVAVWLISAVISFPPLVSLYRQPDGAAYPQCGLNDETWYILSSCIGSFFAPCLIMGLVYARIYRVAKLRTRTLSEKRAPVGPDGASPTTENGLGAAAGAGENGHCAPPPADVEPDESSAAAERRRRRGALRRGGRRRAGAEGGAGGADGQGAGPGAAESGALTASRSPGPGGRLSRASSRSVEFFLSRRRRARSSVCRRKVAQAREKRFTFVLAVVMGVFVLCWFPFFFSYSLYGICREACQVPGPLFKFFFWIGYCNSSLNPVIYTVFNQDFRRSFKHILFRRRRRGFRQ
Sequence of Adrenergic alpha2B (P18089 whole entry): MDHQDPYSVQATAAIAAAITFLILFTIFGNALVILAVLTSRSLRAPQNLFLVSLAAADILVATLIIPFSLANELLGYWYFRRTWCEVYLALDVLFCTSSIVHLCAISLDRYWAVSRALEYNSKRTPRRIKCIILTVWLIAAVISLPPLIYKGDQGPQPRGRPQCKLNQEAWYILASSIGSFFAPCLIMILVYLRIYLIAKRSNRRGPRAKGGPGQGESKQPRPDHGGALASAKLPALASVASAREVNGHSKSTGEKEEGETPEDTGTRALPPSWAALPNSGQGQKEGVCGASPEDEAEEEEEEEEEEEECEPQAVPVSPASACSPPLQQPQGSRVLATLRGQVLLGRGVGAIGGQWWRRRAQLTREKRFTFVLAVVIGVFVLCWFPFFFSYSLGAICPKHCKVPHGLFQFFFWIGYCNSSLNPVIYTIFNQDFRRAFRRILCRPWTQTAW
Sequence of Adrenergic alpha1A (P35348 whole entry): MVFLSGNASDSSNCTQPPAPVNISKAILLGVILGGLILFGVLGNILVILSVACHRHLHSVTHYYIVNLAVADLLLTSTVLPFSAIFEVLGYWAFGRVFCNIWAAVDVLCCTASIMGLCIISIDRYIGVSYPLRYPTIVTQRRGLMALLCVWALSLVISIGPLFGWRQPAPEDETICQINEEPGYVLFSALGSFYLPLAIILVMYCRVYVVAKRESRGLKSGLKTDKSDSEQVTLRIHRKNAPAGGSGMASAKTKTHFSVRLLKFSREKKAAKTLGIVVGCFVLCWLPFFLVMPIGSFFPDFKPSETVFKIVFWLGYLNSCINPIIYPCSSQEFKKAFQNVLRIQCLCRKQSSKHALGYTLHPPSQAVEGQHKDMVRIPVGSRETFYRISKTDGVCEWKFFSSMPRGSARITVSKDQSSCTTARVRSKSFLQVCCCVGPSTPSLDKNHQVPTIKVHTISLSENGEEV
Sequence of hERG channel (Q12809 whole entry): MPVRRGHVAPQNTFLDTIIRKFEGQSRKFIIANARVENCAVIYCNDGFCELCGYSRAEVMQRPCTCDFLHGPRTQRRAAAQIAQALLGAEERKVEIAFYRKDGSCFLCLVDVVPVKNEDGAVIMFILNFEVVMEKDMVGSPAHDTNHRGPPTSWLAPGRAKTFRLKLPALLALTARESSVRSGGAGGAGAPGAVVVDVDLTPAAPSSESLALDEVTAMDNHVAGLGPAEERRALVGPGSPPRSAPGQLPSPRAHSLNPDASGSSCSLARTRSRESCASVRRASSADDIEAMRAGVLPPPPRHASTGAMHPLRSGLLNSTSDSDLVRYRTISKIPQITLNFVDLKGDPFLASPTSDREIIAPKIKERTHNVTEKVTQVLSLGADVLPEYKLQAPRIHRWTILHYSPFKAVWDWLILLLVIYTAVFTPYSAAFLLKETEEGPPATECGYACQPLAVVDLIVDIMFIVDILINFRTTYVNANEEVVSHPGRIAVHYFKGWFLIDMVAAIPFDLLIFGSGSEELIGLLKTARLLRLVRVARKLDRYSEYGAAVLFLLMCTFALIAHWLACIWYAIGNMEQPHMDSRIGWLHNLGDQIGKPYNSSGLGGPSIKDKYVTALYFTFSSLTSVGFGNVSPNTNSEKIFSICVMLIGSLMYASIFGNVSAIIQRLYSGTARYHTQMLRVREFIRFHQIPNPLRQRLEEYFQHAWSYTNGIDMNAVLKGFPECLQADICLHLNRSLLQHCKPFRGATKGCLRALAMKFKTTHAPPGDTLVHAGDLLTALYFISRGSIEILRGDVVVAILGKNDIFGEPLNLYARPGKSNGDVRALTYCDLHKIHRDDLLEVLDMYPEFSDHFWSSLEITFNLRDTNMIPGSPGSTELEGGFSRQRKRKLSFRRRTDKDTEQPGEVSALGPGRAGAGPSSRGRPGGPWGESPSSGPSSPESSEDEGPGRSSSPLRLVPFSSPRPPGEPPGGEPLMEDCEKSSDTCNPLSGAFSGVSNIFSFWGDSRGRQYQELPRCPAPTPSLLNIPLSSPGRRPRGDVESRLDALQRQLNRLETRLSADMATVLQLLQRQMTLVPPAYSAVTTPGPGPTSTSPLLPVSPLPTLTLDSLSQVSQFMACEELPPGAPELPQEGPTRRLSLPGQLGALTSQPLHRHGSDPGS
Sequence of 5-HT1B (P28222 whole entry, species assumed): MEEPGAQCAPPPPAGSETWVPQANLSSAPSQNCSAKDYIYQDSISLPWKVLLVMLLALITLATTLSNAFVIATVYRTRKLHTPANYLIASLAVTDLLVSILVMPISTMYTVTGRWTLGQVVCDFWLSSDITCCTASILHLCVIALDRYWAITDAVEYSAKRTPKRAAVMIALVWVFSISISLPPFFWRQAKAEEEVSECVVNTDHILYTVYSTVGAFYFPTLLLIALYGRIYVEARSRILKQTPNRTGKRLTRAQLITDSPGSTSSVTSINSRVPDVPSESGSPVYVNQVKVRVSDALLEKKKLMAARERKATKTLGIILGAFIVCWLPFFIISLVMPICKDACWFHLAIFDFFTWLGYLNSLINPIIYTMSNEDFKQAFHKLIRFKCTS

## Cc1ccc2c(c1)Oc1sc(Cl)cc1C(N1CCN(CC(C)(C)C(=O)O)CC1)=N2 [Example 3, 3-[4-(2-chloro-8-methyl-thieno[2,3-b][1,5]benzoxazepin-4-yl)piperazin-1-yl]-2,2-dimethyl-propanoic acid dihydrochloride]
Native GABAA receptors
  IC50: > 100 µM
hERG channel
  hERG Channel: >100 µM
Dopamine D2
  Ki: > 4.57 µM
5-HT1B
  Ki: > 5.58 µM
5-HT6
  Ki: > 5.83 µM
Adrenergic alpha1A
  Ki: > 10.2 µM
Adrenergic alpha2A
  Ki: > 8.99 µM
Adrenergic alpha2B
  Ki: > 5.76 µM
Adrenergic alpha2C
  Ki: > 4.23 µM
5-HT2A Receptor
  ED50: 0.09 mg/kg
[1]; at 1 μM
  suppression of constitutive activity (IP1), relative to Tripelennamine: 105%
[1]; at 10 μM
  suppression of constitutive activity (IP1), relative to Tripelennamine: 85%
Wistar rats; 0.025 mg/kg PO
  Rebound Insomnia, Adj. Mean: 1.4 min
  REM inhibition, Adj. Mean: 0.5 min
  Average Sleep Bout, Adj. Mean: 1.2 n-fold increase over vehicle controls
  Longest Sleep Bout, Adj. Mean: 1.1 n-fold increase over vehicle controls
  Cumulative NREM sleep, Adj. Mean: 6.5 min
  Cumulative Total sleep, Adj. Mean: 7.7 min
  Locomotor Activity Intensity, Adj. Mean: 0.2 LMA counts per minute of EEG-defined wakefulness
Wistar rats; 0.035 mg/kg PO
  Rebound Insomnia, Adj. Mean: 1.3 min
  REM inhibition, Adj. Mean: -1.8 min
  Average Sleep Bout, Adj. Mean: 1.3 n-fold increase over vehicle controls
  Longest Sleep Bout, Adj. Mean: 1.1 n-fold increase over vehicle controls
  Cumulative NREM sleep, Adj. Mean: 19.2 min
  Cumulative Total sleep, Adj. Mean: 18.9 min
  Locomotor Activity Intensity, Adj. Mean: 0.2 LMA counts per minute of EEG-defined wakefulness
Wistar rats; 0.05 mg/kg PO
  Rebound Insomnia, Adj. Mean: 0.2 min
  REM inhibition, Adj. Mean: 4.2 min
  Average Sleep Bout, Adj. Mean: 1.6 n-fold increase over vehicle controls
  Longest Sleep Bout, Adj. Mean: 1.4 n-fold increase over vehicle controls
  Cumulative NREM sleep, Adj. Mean: 23.4 min
  Cumulative Total sleep, Adj. Mean: 25.3 min
  Locomotor Activity Intensity, Adj. Mean: −0.3 LMA counts per minute of EEG-defined wakefulness
Wistar rats; 0.1 mg/kg PO
  Rebound Insomnia, Adj. Mean: -3.7 min
  REM inhibition, Adj. Mean: 4.9 min
  Average Sleep Bout, Adj. Mean: 1.7 n-fold increase over vehicle controls
  Longest Sleep Bout, Adj. Mean: 1.5 n-fold increase over vehicle controls
  Cumulative NREM sleep, Adj. Mean: 26.7 min
  Cumulative Total sleep, Adj. Mean: 28.7 min
  Locomotor Activity Intensity, Adj. Mean: 0.1 LMA counts per minute of EEG-defined wakefulness
Wistar rats; 0.25 mg/kg PO
  Rebound Insomnia, Adj. Mean: -2.2 min
  REM inhibition, Adj. Mean: 2.0 min
  Average Sleep Bout, Adj. Mean: 2.1 n-fold increase over vehicle controls
  Longest Sleep Bout, Adj. Mean: 2.0 n-fold increase over vehicle controls
  Cumulative NREM sleep, Adj. Mean: 37.9 min
  Cumulative Total sleep, Adj. Mean: 38.9 min
  Locomotor Activity Intensity, Adj. Mean: −0.7 LMA counts per minute of EEG-defined wakefulness
Wistar rats; 0.5 mg/kg PO
  Rebound Insomnia, Adj. Mean: -5.0 min
  REM inhibition, Adj. Mean: 0.4 min
  Average Sleep Bout, Adj. Mean: 1.8 n-fold increase over vehicle controls
  Longest Sleep Bout, Adj. Mean: 2.2 n-fold increase over vehicle controls
  Cumulative NREM sleep, Adj. Mean: 32.9 min
  Cumulative Total sleep, Adj. Mean: 30.9 min
  Locomotor Activity Intensity, Adj. Mean: 0.6 LMA counts per minute of EEG-defined wakefulness
Wistar rats; 1 mg/kg PO
  Rebound Insomnia, Adj. Mean: 1.6 min
  REM inhibition, Adj. Mean: -0.1 min
  Average Sleep Bout, Adj. Mean: 1.7 n-fold increase over vehicle controls
  Longest Sleep Bout, Adj. Mean: 2.0 n-fold increase over vehicle controls
  Cumulative NREM sleep, Adj. Mean: 34.0 min
  Cumulative Total sleep, Adj. Mean: 33.6 min
  Locomotor Activity Intensity, Adj. Mean: −1.6 LMA counts per minute of EEG-defined wakefulness
Wistar rats; 3 mg/kg PO
  Rebound Insomnia, Adj. Mean: 0.3 min
  REM inhibition, Adj. Mean: -4.6 min
  Average Sleep Bout, Adj. Mean: 2.0 n-fold increase over vehicle controls
  Longest Sleep Bout, Adj. Mean: 2.7 n-fold increase over vehicle controls
  Cumulative NREM sleep, Adj. Mean: 31.7 min
  Cumulative Total sleep, Adj. Mean: 29.7 min
  Locomotor Activity Intensity, Adj. Mean: −3.1 LMA counts per minute of EEG-defined wakefulness
Wistar rats; 10 mg/kg PO
  Rebound Insomnia, Adj. Mean: -3.1 min
  REM inhibition, Adj. Mean: -9.4 min
  Average Sleep Bout, Adj. Mean: 2.0 n-fold increase over vehicle controls
  Longest Sleep Bout, Adj. Mean: 2.3 n-fold increase over vehicle controls
  Cumulative NREM sleep, Adj. Mean: 29.1 min
  Cumulative Total sleep, Adj. Mean: 26.5 min
  Locomotor Activity Intensity, Adj. Mean: −1.9 LMA counts per minute of EEG-defined wakefulness
Wistar rats; rat
  change in awake time following treatment (dose response curve, FIG. 2): does not result in rebound insomnia
  change in cumulative REM sleep time (dose response curve, FIG. 1): does not inhibit REM sleep
  change in distances moved during periods of wakefulness (dose response curve, FIG. 3): does not inhibit or stimulate normal activity
Wistar rats; [2]
  Estimated efficacy dose, NREM accumulation = 30 min.: 0.09 mg/kg
  Estimated efficacy dose, average sleep bout (1.5-fold increase): 0.04 mg/kg
  Estimated efficacy dose, longest sleep bout (1.75-fold increase): 0.12 mg/kg
  Estimated efficacy dose, total sleep accumulation = 25 min.: 0.05 mg/kg
Wistar rats; rat, at 3 mg/kg
  REM sleep inhibition: without significant
  cumulative NREM sleep time: significantly increase
  cumulative total sleep time: significantly increase
  inhibition of locomotor intensity (LMI): without significant
  rebound insomnia: without significant rebound insomnia
Wistar rats; rat, coadministered with citalopram
  NREM sleep: significantly increase NREM sleep at significantly lower doses
